According to patent publication US20020151572A1, “PHARMACEUTICAL USES FOR NOS INHIBITORS” (priority 1998, published 2002):
Counter-ions that a name gives are not always drawn.

melting point: 148 to 165 °C
Structure (SMILES): CC(C)Oc1cc(C(O)CN2CCN(CCc3ccccc3)CC2)ccc1-c1cccc(N)n1 (stereo not shown) (as salt: hydrochloride) [Example 1, 1-[4-(6-AMINO-PYRIDIN-2-YL)-3-ISOPROPOXY-PHENYL]-2-(4-PHENETHYL-PIPERAZIN-1-YL)-ETHANOL]
